Test [1] deals with L4 larvae of Dirofilaria immitis. As to the kind of experiment: microbe, parasite or virus in culture. Particulars: 72 h, read-out: MIC100 (lowest dose that results in complete loss of motility). Format: cell-based.
The subject of test [2] is Dirofilaria immitis microfilariae. Kind of test: Microfilaricidal activity against Dirofilaria immitis microfilariae in 96-well plates. Type of test: cell-based. Particulars: in Canis lupus familiaris, read-out: EC50 (half maximal effective concentration), microfilaricidal activity.

For `C[C@@H](CN1CCN(c2ccc(OC(F)(F)F)cc2)CC1)C(=O)N1CCC(Nc2ccc([N+](=O)[O-])c(C(F)(F)F)c2)CC1` [Example 1037], the MIC in test [1] is less than 5 µM. Also, the EC50 in test [2] is less than 10 µM.

These data come from patent publication US20170196854A1, “USE OF ANTHELMINTIC AGENTS AGAINST DIROFILARIA IMMITIS” (INTERVET INTERNATIONAL B.V., priority 2014, published 2017).
